Measured values published in US12692269B2, “Therapeutic compounds” (Genentech, Inc., priority 2019, dated 2026).

What was measured:
Assay type in all cases: binding
[1] = target: TEAD2 TAZ (amino acids 13-57) (Homo sapiens, UniProt Q15562); experiment: TEAD2-TAZ HTRF (TR-FRET) protein-protein interaction assay; settings: for TEAD2 TAZ HTRF combined: Max % Inhibition: TEAD2, TAZ peptide; for EC50: TEAD2-TAZ HTRF, TR-FRET 665 nm/615 nm, read-out: TEAD2 TAZ HTRF combined: EC50
Outline: (§1)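 Compounds were first allowed 30 min to bind Eu-antibody-tagged His-TEAD (YAP-binding domain, aa 217-447). Biotinylated YAP 50-100 or TAZ 13-57 peptide complexed with streptavidin-XL665 was then added for 60 min at room temperature, and loss of TR-FRET signal gave IC50 or EC50 values.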

TEAD1 YAP50-100 = TEAD1 YAP50-100 (Homo sapiens, UniProt P28347); experiment: TEAD1-YAP HTRF (TR-FRET) protein-protein interaction assay; settings: TEAD1, YAP peptide 50-100, HTRF; for EC50: read-out: TEAD1 YAP50-100 HTRF combined: EC50
Outline: as §1

TEAD4 YAP50-100 = TEAD4 YAP50-100 (Homo sapiens, UniProt Q15561); experiment: TEAD4-YAP HTRF (TR-FRET) protein-protein interaction assay; settings: TEAD4, YAP peptide 50-100, HTRF; for EC50: read-out: TEAD4 YAP50-100 HTRF combined: EC50
Outline: as §1

[2] = target: TEAD1 TAZ (amino acids 13-57) (Homo sapiens, UniProt P28347); experiment: TEAD1-TAZ HTRF (TR-FRET) protein-protein interaction assay; settings: for TEAD1 TAZ HTRF combined: Max % Inhibition: TEAD1, TAZ peptide; for EC50: TEAD1-TAZ HTRF, TR-FRET 665 nm/615 nm, read-out: TEAD1 TAZ HTRF combined: EC50
Outline: as §1

[3] = target: TEAD4 TAZ (amino acids 13-57) (Homo sapiens, UniProt Q15561); experiment: TEAD4-TAZ HTRF (TR-FRET) protein-protein interaction assay; settings: for TEAD4 TAZ HTRF combined: Max % Inhibition: TEAD4, TAZ peptide; for EC50: TEAD4-TAZ HTRF, TR-FRET 665 nm/615 nm, read-out: TEAD4 TAZ HTRF combined: EC50
Outline: as §1

TEAD2 YAP50-100 = TEAD2 YAP50-100 (Homo sapiens, UniProt Q15562); experiment: TEAD2-YAP HTRF (TR-FRET) protein-protein interaction assay; settings: TEAD2, YAP peptide 50-100, HTRF; for EC50: read-out: TEAD2 YAP50-100 HTRF combined: EC50
Outline: as §1

TEAD3 YAP50-100 = TEAD3 YAP50-100 (Homo sapiens, UniProt Q99594); experiment: TEAD3-YAP HTRF (TR-FRET) protein-protein interaction assay; settings: TEAD3, YAP peptide 50-100, HTRF; for EC50: read-out: TEAD3 YAP50-100 HTRF combined: EC50
Outline: as §1

[4] = target: TEAD3 TAZ (amino acids 13-57) (Homo sapiens, UniProt Q99594); experiment: TEAD3-TAZ HTRF (TR-FRET) protein-protein interaction assay; settings: for TEAD3 TAZ HTRF combined: Max % Inhibition: TEAD3, TAZ peptide; for EC50: TEAD3-TAZ HTRF, TR-FRET 665 nm/615 nm, read-out: TEAD3 TAZ HTRF combined: EC50
Outline: as §1

TEAD4 YAP50-100, sequence (Q15561 217-434 limits assumed): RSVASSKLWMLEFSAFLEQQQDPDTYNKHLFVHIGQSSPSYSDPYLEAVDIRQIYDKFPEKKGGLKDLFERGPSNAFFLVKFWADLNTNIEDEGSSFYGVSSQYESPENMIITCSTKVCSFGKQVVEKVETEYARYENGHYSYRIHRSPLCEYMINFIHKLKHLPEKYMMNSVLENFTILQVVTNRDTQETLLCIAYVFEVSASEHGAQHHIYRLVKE
TEAD4 TAZ (amino acids 13-57), sequence (Q15561 217-434 limits assumed): as above
TEAD1 TAZ (amino acids 13-57), sequence (P28347 167-426 limits assumed): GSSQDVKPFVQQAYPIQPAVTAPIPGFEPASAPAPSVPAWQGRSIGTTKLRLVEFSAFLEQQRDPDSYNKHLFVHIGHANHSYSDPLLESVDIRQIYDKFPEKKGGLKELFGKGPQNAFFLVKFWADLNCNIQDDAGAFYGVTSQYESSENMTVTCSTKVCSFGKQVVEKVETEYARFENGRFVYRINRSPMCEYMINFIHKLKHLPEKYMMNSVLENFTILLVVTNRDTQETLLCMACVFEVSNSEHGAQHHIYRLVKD
TEAD1 YAP50-100, sequence (P28347 167-426 limits assumed): as above
TEAD3 TAZ (amino acids 13-57), sequence (Q99594 173-435 limits assumed): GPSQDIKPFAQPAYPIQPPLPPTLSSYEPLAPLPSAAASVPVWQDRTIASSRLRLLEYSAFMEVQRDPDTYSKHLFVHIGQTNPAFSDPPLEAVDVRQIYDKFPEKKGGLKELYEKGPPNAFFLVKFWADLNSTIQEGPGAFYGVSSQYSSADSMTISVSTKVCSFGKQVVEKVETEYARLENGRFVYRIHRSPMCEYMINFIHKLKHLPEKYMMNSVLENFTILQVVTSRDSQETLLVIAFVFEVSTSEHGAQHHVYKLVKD
TEAD3 YAP50-100, sequence (Q99594 173-435 limits assumed): as above
TEAD2 TAZ (amino acids 13-57), sequence (Q15562 217-447): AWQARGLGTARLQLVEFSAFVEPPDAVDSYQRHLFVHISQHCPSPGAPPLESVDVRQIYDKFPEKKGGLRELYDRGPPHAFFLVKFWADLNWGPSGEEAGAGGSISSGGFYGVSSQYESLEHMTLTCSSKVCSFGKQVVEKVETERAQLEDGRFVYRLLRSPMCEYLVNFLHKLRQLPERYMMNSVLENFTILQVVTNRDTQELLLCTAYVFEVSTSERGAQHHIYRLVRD
TEAD2 YAP50-100, sequence (Q15562 217-447): as above

O=C(c1c(-c2ccccn2)nn2c(=O)cc(-c3ccc(C4CCCCC4)cc3)[nH]c12)N1CC(CF)C1 [Compound 16, 5-(4-Cyclohexylphenyl)-3-(3-(fluoromethyl)azetidine-1-carbonyl)-2-(pyridin-2-yl)pyrazolo[1,5-a]pyrimidin-7(4H)-one]
TEAD2 TAZ HTRF combined: Max % Inhibition [1]: 53.5% | EC50 [1]: 0.01 µM | TEAD1 YAP50-100 HTRF combined: Max % Inhibition (TEAD1 YAP50-100): 70.0% | EC50 (TEAD1 YAP50-100): 0.06 µM | TEAD4 YAP50-100 HTRF combined: Max % Inhibition (TEAD4 YAP50-100): 40.5% | EC50 (TEAD4 YAP50-100): 0.02 µM | TEAD1 TAZ HTRF combined: Max % Inhibition [2]: 59.5% | EC50 [2]: 0.05 µM | TEAD4 TAZ HTRF combined: Max % Inhibition [3]: 38.0% | EC50 [3]: 0.02 µM | TEAD2 YAP50-100 HTRF combined: Max % Inhibition (TEAD2 YAP50-100): 57.5% | EC50 (TEAD2 YAP50-100): 0.01 µM | TEAD3 YAP50-100 HTRF combined: Max % Inhibition (TEAD3 YAP50-100): 55.0% | EC50 (TEAD3 YAP50-100): 0.08 µM | TEAD3 TAZ HTRF combined: Max % Inhibition [4]: 44.5% | EC50 [4]: 0.08 µM

O=C(c1c(-c2cnccn2)nn2c(=O)cc(-c3ccc(C4CCCCC4)cc3)[nH]c12)N1CC(CF)C1 [Compound 17, 5-(4-Cyclohexylphenyl)-3-(3-(fluoromethyl)azetidine-1-carbonyl)-2-(pyrazin-2-yl)pyrazolo[1,5-a]pyrimidin-7(4H)-one]
TEAD2 TAZ HTRF combined: Max % Inhibition [1]: 60.9% | EC50 [1]: 0.01 µM | TEAD1 YAP50-100 HTRF combined: Max % Inhibition (TEAD1 YAP50-100): 69.0% | EC50 (TEAD1 YAP50-100): 0.03 µM | TEAD4 YAP50-100 HTRF combined: Max % Inhibition (TEAD4 YAP50-100): 42.0% | EC50 (TEAD4 YAP50-100): 0.04 µM | TEAD1 TAZ HTRF combined: Max % Inhibition [2]: 60.6% | EC50 [2]: 0.04 µM | TEAD4 TAZ HTRF combined: Max % Inhibition [3]: 34.9% | EC50 [3]: 0.03 µM | TEAD2 YAP50-100 HTRF combined: Max % Inhibition (TEAD2 YAP50-100): 61.6% | EC50 (TEAD2 YAP50-100): 0.01 µM | TEAD3 YAP50-100 HTRF combined: Max % Inhibition (TEAD3 YAP50-100): 63.3% | EC50 (TEAD3 YAP50-100): 0.06 µM | TEAD3 TAZ HTRF combined: Max % Inhibition [4]: 53.9% | EC50 [4]: 0.06 µM

Cc1ccnc(-c2nn3c(=O)cc(-c4ccc(C5CCCCC5)cc4)[nH]c3c2C(=O)N2CC(CF)C2)c1 [Compound 18, 5-(4-Cyclohexylphenyl)-3-(3-(fluoromethyl)azetidine-1-carbonyl)-2-(4-methylpvridin-2-yl)pyrazolo[1,5-a]pyrimidin-7(4H)-one]
TEAD2 TAZ HTRF combined: Max % Inhibition [1]: 55.5% | EC50 [1]: 0.01 µM | TEAD1 YAP50-100 HTRF combined: Max % Inhibition (TEAD1 YAP50-100): 73.0% | EC50 (TEAD1 YAP50-100): 0.05 µM | TEAD4 YAP50-100 HTRF combined: Max % Inhibition (TEAD4 YAP50-100): 47.0% | EC50 (TEAD4 YAP50-100): 0.02 µM | TEAD1 TAZ HTRF combined: Max % Inhibition [2]: 67.0% | EC50 [2]: 0.06 µM | TEAD4 TAZ HTRF combined: Max % Inhibition [3]: 49.0% | EC50 [3]: 0.02 µM | TEAD2 YAP50-100 HTRF combined: Max % Inhibition (TEAD2 YAP50-100): 58.5% | EC50 (TEAD2 YAP50-100): 0.01 µM | TEAD3 YAP50-100 HTRF combined: Max % Inhibition (TEAD3 YAP50-100): 54.5% | EC50 (TEAD3 YAP50-100): 0.09 µM | TEAD3 TAZ HTRF combined: Max % Inhibition [4]: 43.0% | EC50 [4]: 0.09 µM

O=C(c1c(-c2ncco2)nn2c(=O)cc(-c3ccc(C4CCCCC4)cc3)[nH]c12)N1CC(CF)C1 [Compound 19, 5-(4-Cyclohexylphenyl)-3-(3-(fluoromethyl)azetidine-1-carbonyl)-2-(oxazol-2-yl)pyrazolo[1,5-a]pyrimidin-7(4H)-one]
TEAD2 TAZ HTRF combined: Max % Inhibition [1]: 63.5% | EC50 [1]: 0.01 µM | TEAD1 YAP50-100 HTRF combined: Max % Inhibition (TEAD1 YAP50-100): 69.0% | EC50 (TEAD1 YAP50-100): 0.04 µM | TEAD4 YAP50-100 HTRF combined: Max % Inhibition (TEAD4 YAP50-100): 46.0% | EC50 (TEAD4 YAP50-100): 0.06 µM | TEAD1 TAZ HTRF combined: Max % Inhibition [2]: 59.5% | EC50 [2]: 0.07 µM | TEAD4 TAZ HTRF combined: Max % Inhibition [3]: 38.5% | EC50 [3]: 0.05 µM | TEAD2 YAP50-100 HTRF combined: Max % Inhibition (TEAD2 YAP50-100): 67.5% | EC50 (TEAD2 YAP50-100): 0.01 µM | TEAD3 YAP50-100 HTRF combined: Max % Inhibition (TEAD3 YAP50-100): 60.0% | EC50 (TEAD3 YAP50-100): 0.06 µM | TEAD3 TAZ HTRF combined: Max % Inhibition [4]: 53.0% | EC50 [4]: 0.06 µM

Cc1nccnc1-c1nn2c(=O)cc(-c3ccc(C4CCCCC4)cc3)[nH]c2c1C(=O)N(C)C [Compound 20, 5-(4-Cyclohexylphenyl)-N,N-dimethyl-2-(3-methylpyrazin-2-yl)-7-oxo-4,7-dihydropyrazolo[1,5-a]pyrimidine-3-carboxamide]
TEAD2 TAZ HTRF combined: Max % Inhibition [1]: 50.5% | EC50 [1]: 0.02 µM | TEAD1 YAP50-100 HTRF combined: Max % Inhibition (TEAD1 YAP50-100): 72.0% | EC50 (TEAD1 YAP50-100): 0.05 µM | TEAD4 YAP50-100 HTRF combined: Max % Inhibition (TEAD4 YAP50-100): 37.0% | EC50 (TEAD4 YAP50-100): 0.82 µM | TEAD1 TAZ HTRF combined: Max % Inhibition [2]: 63.0% | EC50 [2]: 0.05 µM | TEAD4 TAZ HTRF combined: Max % Inhibition [3]: 34.5% | EC50 [3]: 0.94 µM | TEAD2 YAP50-100 HTRF combined: Max % Inhibition (TEAD2 YAP50-100): 53.5% | EC50 (TEAD2 YAP50-100): 0.02 µM | TEAD3 YAP50-100 HTRF combined: Max % Inhibition (TEAD3 YAP50-100): 65.5% | EC50 (TEAD3 YAP50-100): 0.05 µM | TEAD3 TAZ HTRF combined: Max % Inhibition [4]: 56.5% | EC50 [4]: 0.07 µM

Cc1nccnc1-c1nn2c(=O)cc(-c3ccc(C4CCCCC4)c(F)c3)[nH]c2c1C(=O)N1CC(CF)C1 [Compound 21, 5-(4-cyclohexyl-3-fluorophenyl)-3-(3-(fluoromethyl)azetidine-1-carbonyl)-2-(3-methylpyrazin-2-yl)pyrazolo[1,5-a]pyrimidin-7(4H)-one]
TEAD2 TAZ HTRF combined: Max % Inhibition [1]: 61.5% | EC50 [1]: 0.01 µM | TEAD1 YAP50-100 HTRF combined: Max % Inhibition (TEAD1 YAP50-100): 74.0% | EC50 (TEAD1 YAP50-100): 0.04 µM | TEAD4 YAP50-100 HTRF combined: Max % Inhibition (TEAD4 YAP50-100): 49.5% | EC50 (TEAD4 YAP50-100): 0.03 µM | TEAD1 TAZ HTRF combined: Max % Inhibition [2]: 71.5% | EC50 [2]: 0.04 µM | TEAD4 TAZ HTRF combined: Max % Inhibition [3]: 51.0% | EC50 [3]: 0.03 µM | TEAD2 YAP50-100 HTRF combined: Max % Inhibition (TEAD2 YAP50-100): 62.5% | EC50 (TEAD2 YAP50-100): 0.01 µM | TEAD3 YAP50-100 HTRF combined: Max % Inhibition (TEAD3 YAP50-100): 69.5% | EC50 (TEAD3 YAP50-100): 0.08 µM | TEAD3 TAZ HTRF combined: Max % Inhibition [4]: 69.5% | EC50 [4]: 0.09 µM

O=C(c1c(-c2ncccn2)nn2c(=O)cc(-c3ccc(C4CCCCC4)c(F)c3)[nH]c12)N1CC(CF)C1 [Compound 22, 5-(4-Cyclohexyl-3-fluorophenyl)-3-(3-(fluoromethyl)azetidine-1-carbonyl)-2-(pyrimidin-2-yl)pyrazolo[1,5-a]pyrimidin-7(4H)-one]
TEAD2 TAZ HTRF combined: Max % Inhibition [1]: 57.5% | EC50 [1]: 0.02 µM | TEAD1 YAP50-100 HTRF combined: Max % Inhibition (TEAD1 YAP50-100): 69.0% | EC50 (TEAD1 YAP50-100): 0.14 µM | TEAD4 YAP50-100 HTRF combined: Max % Inhibition (TEAD4 YAP50-100): 45.5% | EC50 (TEAD4 YAP50-100): 0.07 µM | TEAD1 TAZ HTRF combined: Max % Inhibition [2]: 64.0% | EC50 [2]: 0.11 µM | TEAD4 TAZ HTRF combined: Max % Inhibition [3]: 48.0% | EC50 [3]: 0.06 µM | TEAD2 YAP50-100 HTRF combined: Max % Inhibition (TEAD2 YAP50-100): 58.0% | EC50 (TEAD2 YAP50-100): 0.02 µM | TEAD3 YAP50-100 HTRF combined: Max % Inhibition (TEAD3 YAP50-100): 60.0% | EC50 (TEAD3 YAP50-100): 0.21 µM | TEAD3 TAZ HTRF combined: Max % Inhibition [4]: 57.0% | EC50 [4]: 0.21 µM
